How the values were obtained:
[1] = compound: CN(C)CCCOc1ccc(-c2ccc3ncc4c(c3c2)n(C2CCOCC2)c(=O)n4C)cn1 [AZD0156]; conditions: max 3 µM
Method in brief: (§1)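 After 24 hours at 37°C and 5% CO2 in 1536-well plates holding 7.5 μl of DMEM/F12 or RPMI with 10% FBS, cancer cell lines were dosed for 72 hours, with final DMSO typically 0.2%. Viability came from CellTiter-Glo 2.0 luminescence, scaled between the means of blank wells and DMSO wells. A non-linear mixed effects model fitted a two-parameter logistic curve to each dose response to give the single-agent IC50.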

[2] = compound: CC(C)n1c(=O)n(C)c2cnc3cc(F)c(-c4ccc(OCCCN5CCCCC5)nc4)cc3c21 [AZD1390]; conditions: max 0.3 µM
Method in brief: as §1

[3] = compound: COc1nnc2ccc(N3CCC(c4ccc(OCCN5CCN(C)C(=O)[C@H]5C)cc4)CC3)nn12 [AZD5153]; conditions: max 1 µM
Method in brief: as §1

[4] = compound: C[C@@H](Nc1cc(F)cc(F)c1)c1cc(C(=O)N(C)C)cc2c(=O)cc(N3CCOCC3)oc12 [AZD8186]; conditions: max 10 µM
Method in brief: as §1

[5] = compound: Nc1ccn([C@@H]2O[C@H](CO)[C@@H](O)C2(F)F)c(=O)n1 [Gemcitabine]; conditions: max 0.3 µM
Method in brief: as §1

[6] = compound: O=c1[nH]cc(F)c(=O)[nH]1 [5-Fluorouracil]; conditions: max 20 µM
Method in brief: as §1

[7] = compound: NC1(c2ccc(-c3nc4ccn5c(=O)[nH]nc5c4cc3-c3ccccc3)cc2)CCC1 [MK-2206]; conditions: max 10 µM
Method in brief: as §1

[8] = compound: Cc1cc2ncnn2cc1Nc1ncc2c(n1)n(C1CCOCC1)c(=O)n2C [AZD7648]; conditions: max 10 µM
Method in brief: as §1

[9] = compound: Cc1c2c(nn1C)CSCc1cc(n(C)n1)CSc1cc(c3ccccc3c1)OCCCc1c(C(=O)O)n(C)c3c-2c(Cl)ccc13 [AZD5991]; conditions: max 1 µM
Method in brief: as §1

[10] = compound: C[C@@H]1COCCN1C2=NC(=NC(=C2)C3(CC3)[S@](=N)(=O)C)C4=C5C=CNC5=NC=C4 [AZD6738]; conditions: max 10 µM
Method in brief: as §1

[11] = compound: CN(CC[C@H](CSC1=CC=CC=C1)NC2=C(C=C(C=C2)S(=O)(=O)NC(=O)C3=CC=C(C=C3)N4CCC(CC4)[C@H](C5=CC=CC=C5C6=CC=C(C=C6)Cl)O)S(=O)(=O)C(F)(F)F)CCO [AZD4320]; conditions: max 1 µM
Method in brief: as §1

[12] = compound: CCN(CCO)CCCOc1ccc2c(Nc3cc(CC(=O)Nc4cccc(F)c4)[nH]n3)ncnc2c1 [AZD2811]; conditions: max 1 µM
Method in brief: as §1

[13] = compound: C[C@@H](c1ccc2nccn2c1)n1nnc2ncc(-c3cnn(C)c3)nc21 [Savolitinib]; conditions: max 1 µM
Method in brief: as §1

[14] = compound: COc1cccc2c1C(=O)c1c(O)c3c(c(O)c1C2=O)C[C@@](O)(C(=O)CO)C[C@@H]3O[C@H]1C[C@H](N)[C@H](O)[C@H](C)O1 [Doxorubicin]; conditions: max 1 µM
Method in brief: as §1

[15] = compound: C1CN(CCC1(C(=O)N[C@@H](CCO)C2=CC=C(C=C2)Cl)N)C3=NC=NC4=C3C=CN4 [AZD5363]; conditions: max 10 µM
Method in brief: as §1

[16] = compound: COc1cc(Nc2ncc3c(n2)-c2ccc(Cl)cc2C(c2c(F)cccc2OC)=NC3)ccc1C(=O)O [Alisertib]; conditions: max 10 µM
Method in brief: as §1

[17] = compound: CC1=CN2[C@@H](C1)C=NC3=CC(=C(C=C3C2=O)OC)OCCCCCOC4=C(C=C5C(=C4)N=C[C@@H]6CC(=CN6C5=O)C)OC [SG3199]; conditions: max 0.001 µM
Method in brief: as §1

[18] = compound: CC(=O)O[C@H]1C(=O)[C@@]2(C)[C@H]([C@H](OC(=O)c3ccccc3)[C@]3(O)C[C@H](OC(=O)[C@H](O)[C@@H](NC(=O)c4ccccc4)c4ccccc4)C(C)=C1C3(C)C)[C@]1(OC(C)=O)CO[C@@H]1C[C@@H]2O [Paclitaxel]; conditions: max 3 µM
Method in brief: as §1

[19] = compound: CS(=O)(=O)CCNCc1ccc(-c2ccc3ncnc(Nc4ccc(OCc5cccc(F)c5)c(Cl)c4)c3c2)o1 [Lapatinib]; conditions: max 10 µM
Method in brief: as §1

[20] = compound: O=C(c1cc(Cc2n[nH]c(=O)c3ccccc23)ccc1F)N1CCN(C(=O)C2CC2)CC1 [Olaparib]; conditions: max 10 µM
Method in brief: as §1

[21] = compound: C=CCn1c(=O)c2cnc(Nc3ccc(N4CCN(C)CC4)cc3)nc2n1-c1cccc(C(C)(C)O)n1 [AZD1775]; conditions: max 3 µM
Method in brief: as §1

[22] = compound: N#Cc1cnc(Nc2cc(NC[C@H]3CNCCO3)c(C(F)(F)F)cn2)cn1 [SRA737]; conditions: max 10 µM
Method in brief: as §1

[23] = compound: O=C(Nc1ccc2[nH]nc(-c3ccncc3)c2c1)[C@@H]1CCN(CC(=O)N2CCN(c3ccc(-c4ncccn4)cc3)CC2)C1; conditions: max 5 µM
Method in brief: as §1

[24] = compound: Cc1nc(-c2cn3c(n2)-c2ccc(-c4cnn(C(C)(C)C(N)=O)c4)cc2OCC3)n(C(C)C)n1 [Taselisib]; conditions: max 10 µM
Method in brief: as §1

[25] = compound: Cn1cnc2c(F)c(Nc3ccc(Br)cc3Cl)c(C(=O)NOCCO)cc21 [Selumetinib]; conditions: max 10 µM
Method in brief: as §1

[26] = compound: CCc1c2c(nc3ccc(O)cc13)-c1cc3c(c(=O)n1C2)COC(=O)[C@]3(O)CC [SN-38]; conditions: max 0.3 µM
Method in brief: as §1

[27] = compound: C1CC(C1)(C(=O)[O-])C(=O)[O-].N.N.[Pt+2] [Carboplatin]; conditions: max 10 µM
Method in brief: as §1

[28] = compound: CC1=C(C(=CC=C1)Cl)NC(=O)C2=CN=C(S2)NC3=CC(=NC(=N3)C)N4CCN(CC4)CCO [Dasatinib]; conditions: max 2 µM
Method in brief: as §1

[29] = compound: COc1cccc(OCCCN)c1-c1cc(Nc2cnc(C#N)cn2)n[nH]1 [Prexasertib]; conditions: max 1 µM
Method in brief: as §1

[30] = compound: C[C@@H](Oc1cc(-c2cnn(C3CCNCC3)c2)cnc1N)c1c(Cl)ccc(F)c1Cl [Crizotinib]; conditions: max 10 µM
Method in brief: as §1

[31] = compound: CC(=O)Nc1cccc(-n2c(=O)n(C3CC3)c(=O)c3c(Nc4ccc(I)cc4F)n(C)c(=O)c(C)c32)c1 [Trametinib]; conditions: max 1 µM
Method in brief: as §1

[32] = compound: COc1cc([C@@H]2c3cc4c(cc3[C@@H](O[C@@H]3O[C@@H]5CO[C@@H](C)O[C@H]5[C@H](O)[C@H]3O)[C@H]3COC(=O)[C@H]23)OCO4)cc(OC)c1O [Etoposide]; conditions: max 10 µM
Method in brief: as §1

[33] = compound: CC1(C)CCC(CN2CCN(c3ccc(C(=O)NS(=O)(=O)c4ccc(NCC5CCOCC5)c([N+](=O)[O-])c4)c(Oc4cnc5[nH]ccc5c4)c3)CC2)=C(c2ccc(Cl)cc2)C1 [Venetoclax]; conditions: max 1 µM
Method in brief: as §1

[34] = compound: COc1cc2ncnc(Nc3ccc(F)c(Cl)c3)c2cc1OCCCN1CCOCC1 [Gefitinib]; conditions: max 10 µM
Method in brief: as §1

[35] = compound: CC(=O)c1c(C)c2cnc(Nc3ccc(N4CCNCC4)cn3)nc2n(C2CCCC2)c1=O [Palbociclib]; conditions: max 10 µM
Method in brief: as §1

Cell Line | IC50, cell viability 72 h [1] | IC50, cell viability 72 h [2] | IC50, cell viability 72 h [3] | IC50, cell viability 72 h [4] | IC50, cell viability 72 h [5] | IC50, cell viability 72 h [6] | IC50, cell viability 72 h [7] | IC50, cell viability 72 h [8] | IC50, cell viability 72 h [9] | IC50, cell viability 72 h [10] | IC50, cell viability 72 h [11] | IC50, cell viability 72 h [12] | IC50, cell viability 72 h [13] | IC50, cell viability 72 h [14] | IC50, cell viability 72 h [15] | IC50, cell viability 72 h [16] | IC50, cell viability 72 h [17] | IC50, cell viability 72 h [18] | IC50, cell viability 72 h [19] | IC50, cell viability 72 h [20] | IC50, cell viability 72 h [21] | IC50, cell viability 72 h [22] | IC50, cell viability 72 h [23] | IC50, cell viability 72 h [24] | IC50, cell viability 72 h [25] | IC50, cell viability 72 h [26] | IC50, cell viability 72 h [27] | IC50, cell viability 72 h [28] | IC50, cell viability 72 h [29] | IC50, cell viability 72 h [30] | IC50, cell viability 72 h [31] | IC50, cell viability 72 h [32] | IC50, cell viability 72 h [33] | IC50, cell viability 72 h [34] | IC50, cell viability 72 h [35]
HCC1395 (Breast Carcinoma) | > 3000 nM | > 300 nM | > 1000 nM | > 10000 nM | > 300 nM | > 20000 nM | > 10000 nM | > 10000 nM | > 1000 nM | 2790 nM | > 1000 nM | > 1000 nM | > 1000 nM | > 1000 nM | > 10000 nM | > 10000 nM | > 1 nM | 206 nM | > 10000 nM | > 10000 nM | 965 nM | 2950 nM | > 5000 nM | > 10000 nM | > 10000 nM | 173 nM | > 10000 nM | > 2000 nM | 9.08 nM | > 10000 nM | > 1000 nM | > 10000 nM | > 1000 nM | > 10000 nM | > 10000 nM
NCI-H441 (Lung Adenocarcinoma) | > 3000 nM | > 300 nM | > 1000 nM | > 10000 nM | 299 nM | > 20000 nM | > 10000 nM | > 10000 nM | > 1000 nM | > 10000 nM | > 1000 nM | > 1000 nM | > 1000 nM | > 1000 nM | > 10000 nM | > 10000 nM | > 1 nM | 2240 nM | > 10000 nM | > 10000 nM | > 3000 nM | > 10000 nM | > 5000 nM | > 10000 nM | > 10000 nM | 112 nM | > 10000 nM | > 2000 nM | 666 nM | > 10000 nM | > 1000 nM | > 10000 nM | > 1000 nM | > 10000 nM | > 10000 nM
SK-HEP-1 (Hepatocellular Carcinoma) | > 3000 nM | > 300 nM | > 1000 nM | > 10000 nM | > 300 nM | > 20000 nM | 6200 nM | > 10000 nM | > 1000 nM | > 10000 nM | > 1000 nM | > 1000 nM | > 1000 nM | 698 nM | > 10000 nM | > 10000 nM | > 1 nM | 45.4 nM | > 10000 nM | > 10000 nM | > 3000 nM | > 10000 nM | > 5000 nM | > 10000 nM | > 10000 nM | 83.5 nM | > 10000 nM | > 2000 nM | > 1000 nM | > 10000 nM | > 1000 nM | 7400 nM | > 1000 nM | > 10000 nM | 9050 nM

Reference: the supplement of paper PMC11061612
